# According to patent EP0198522A1, “Heterocyclic herbicides” (SHELL INTERNATIONALE RESEARCH MAATSCHAPPIJ B.V., priority 1985, dated 1986):
# Legend:
# Type in all cases: in vivo
# [1] = system: barnyard grass, Echinochloa crusgalli; assay: Herbicidal activity, post-emergence soil drench test; conditions: 10 kg/ha soil drench; assessed visually thirteen days after drenching; 0-9 scale, 0 = growth as untreated control, 9 = death
# Description: (§1) To evaluate their herbicidal activity, compounds according to the invention were tested using as representative range of plants: maize, Zea mays (Mz); rice, Oryza sativa (R); barnyard grass, Echinochloa crusgalli (BG); oat, Avena sativa (0); linseed, Linum usitatissisum (L); mustard, Sinapsis alba (M); sugar beet, Beta vulgaris (SB) and soya bean, Glycine max (S).
# (§2) The tests fall into two categories, pre-emergence and post-emergence. […] The post-emergence tests involved two types of test, viz., soil drench and foliar spray tests. In the soil drench tests the soil in which the seedling plants of the above species were growing was drenched with a liquid formulation containing a compound of the invention, and in the foliar spray tests the seedling plants were sprayed with such a formulation.
# (§3) The soil used in the tests was a prepared horticultural loam.
# (§4) These acetone solutions were diluted with water and the resulting formulations applied at dosage levels corresponding to 5 kg or 1 kg of active material per hectare in a volume equivalent to 600 litres per hectare in the soil spray and foliar spray test, and at a dosage of level equivalent to 10 kilograms of active material per hectare in a volume equivalent to approximately 3,000 litres per hectare in the soil drench tests.
# (§5) In the pre-emexgence tests untreated sown soil and in the post-emergence tests untreated soil bearing seedling plants were used as controls.
# (§6) The herbicidal effects of the test compounds were assessed visually twelve days after spraying the foliage and the soil, and thirteen days after drenching the soil and were recorded on a 0-9 scale. A rating 0 indicates growth as untreated control, a rating 9 indicates death. An increase of 1 unit on the linear scale approximates to a 10% increase in the level of effect.
# [2] = system: linseed, Linum usitatissisum; assay: as above; conditions: 10 kg/ha soil drench; assessed visually thirteen days after drenching; 0-9 scale, 0 = growth as untreated control, 9 = death
# Description: as §1, §2, §3, §4, §5, §6
# [3] = system: maize, Zea mays; assay: as above; conditions: 10 kg/ha soil drench; assessed visually thirteen days after drenching; 0-9 scale, 0 = growth as untreated control, 9 = death
# Description: as §1, §2, §3, §4, §5, §6
# [4] = system: mustard, Sinapsis alba; assay: as above; conditions: 10 kg/ha soil drench; assessed visually thirteen days after drenching; 0-9 scale, 0 = growth as untreated control, 9 = death
# Description: as §1, §2, §3, §4, §5, §6
# [5] = system: oat, Avena sativa; assay: as above; conditions: 10 kg/ha soil drench; assessed visually thirteen days after drenching; 0-9 scale, 0 = growth as untreated control, 9 = death
# Description: as §1, §2, §3, §4, §5, §6
# [6] = system: rice, Oryza sativa; assay: as above; conditions: 10 kg/ha soil drench; assessed visually thirteen days after drenching; 0-9 scale, 0 = growth as untreated control, 9 = death
# Description: as §1, §2, §3, §4, §5, §6
# [7] = system: soya bean, Glycine max; assay: as above; conditions: 10 kg/ha soil drench; assessed visually thirteen days after drenching; 0-9 scale, 0 = growth as untreated control, 9 = death
# Description: as §1, §2, §3, §4, §5, §6
# [8] = system: sugar beet, Beta vulgaris; assay: as above; conditions: 10 kg/ha soil drench; assessed visually thirteen days after drenching; 0-9 scale, 0 = growth as untreated control, 9 = death
# Description: as §1, §2, §3, §4, §5, §6
# [9] = system: barnyard grass, Echinochloa crusgalli; assay: Herbicidal activity, post-emergence foliar spray test; conditions: assessed visually twelve days after spraying, 0-9 scale, 0 = growth as untreated control, 9 = death
# Description: as §1, §2, §3, §4, §5, §6
# [10] = system: linseed, Linum usitatissisum; assay: as above; conditions: assessed visually twelve days after spraying, 0-9 scale, 0 = growth as untreated control, 9 = death
# Description: as §1, §2, §3, §4, §5, §6
# [11] = system: maize, Zea mays; assay: as above; conditions: assessed visually twelve days after spraying, 0-9 scale, 0 = growth as untreated control, 9 = death
# Description: as §1, §2, §3, §4, §5, §6
# [12] = system: mustard, Sinapsis alba; assay: as above; conditions: assessed visually twelve days after spraying, 0-9 scale, 0 = growth as untreated control, 9 = death
# Description: as §1, §2, §3, §4, §5, §6
# [13] = system: oat, Avena sativa; assay: as above; conditions: assessed visually twelve days after spraying, 0-9 scale, 0 = growth as untreated control, 9 = death
# Description: as §1, §2, §3, §4, §5, §6
# [14] = system: rice, Oryza sativa; assay: as above; conditions: assessed visually twelve days after spraying, 0-9 scale, 0 = growth as untreated control, 9 = death
# Description: as §1, §2, §3, §4, §5, §6
# [15] = system: soya bean, Glycine max; assay: as above; conditions: assessed visually twelve days after spraying, 0-9 scale, 0 = growth as untreated control, 9 = death
# Description: as §1, §2, §3, §4, §5, §6
# [16] = system: sugar beet, Beta vulgaris; assay: as above; conditions: assessed visually twelve days after spraying, 0-9 scale, 0 = growth as untreated control, 9 = death
# Description: as §1, §2, §3, §4, §5, §6
# [17] = system: barnyard grass, Echinochloa crusgalli; assay: Herbicidal activity, pre-emergence test (soil spray); conditions: assessed visually twelve days after spraying, 0-9 scale, 0 = growth as untreated control, 9 = death
# Description: as §1, §2, §3, §4, §5, §6
# [18] = system: linseed, Linum usitatissisum; assay: as above; conditions: assessed visually twelve days after spraying, 0-9 scale, 0 = growth as untreated control, 9 = death
# Description: as §1, §2, §3, §4, §5, §6
# [19] = system: maize, Zea mays; assay: as above; conditions: assessed visually twelve days after spraying, 0-9 scale, 0 = growth as untreated control, 9 = death
# Description: as §1, §2, §3, §4, §5, §6
# [20] = system: mustard, Sinapsis alba; assay: as above; conditions: assessed visually twelve days after spraying, 0-9 scale, 0 = growth as untreated control, 9 = death
# Description: as §1, §2, §3, §4, §5, §6
# [21] = system: oat, Avena sativa; assay: as above; conditions: assessed visually twelve days after spraying, 0-9 scale, 0 = growth as untreated control, 9 = death
# Description: as §1, §2, §3, §4, §5, §6
# [22] = system: rice, Oryza sativa; assay: as above; conditions: assessed visually twelve days after spraying, 0-9 scale, 0 = growth as untreated control, 9 = death
# Description: as §1, §2, §3, §4, §5, §6
# [23] = system: soya bean, Glycine max; assay: as above; conditions: assessed visually twelve days after spraying, 0-9 scale, 0 = growth as untreated control, 9 = death
# Description: as §1, §2, §3, §4, §5, §6
# [24] = system: sugar beet, Beta vulgaris; assay: as above; conditions: assessed visually twelve days after spraying, 0-9 scale, 0 = growth as untreated control, 9 = death
# Description: as §1, §2, §3, §4, §5, §6
SMILES,Soil drench 10/kg/ha BG (herbicidal effect rating) [1],Soil drench 10/kg/ha L (herbicidal effect rating) [2],Soil drench 10/kg/ha Mz (herbicidal effect rating) [3],Soil drench 10/kg/ha M (herbicidal effect rating) [4],Soil drench 10/kg/ha O (herbicidal effect rating) [5],Soil drench 10/kg/ha R (herbicidal effect rating) [6],Soil drench 10/kg/ha S (herbicidal effect rating) [7],Soil drench 10/kg/ha SB (herbicidal effect rating) [8],Foliar spray BG (herbicidal effect rating) ([9]; Dosage 1 kg/ha),Foliar spray BG (herbicidal effect rating) ([9]; Dosage 5 kg/ha),Foliar spray L (herbicidal effect rating) ([10]; Dosage 1 kg/ha),Foliar spray L (herbicidal effect rating) ([10]; Dosage 5 kg/ha),Foliar spray Mz (herbicidal effect rating) ([11]; Dosage 1 kg/ha),Foliar spray Mz (herbicidal effect rating) ([11]; Dosage 5 kg/ha),Foliar spray M (herbicidal effect rating) ([12]; Dosage 1 kg/ha),Foliar spray M (herbicidal effect rating) ([12]; Dosage 5 kg/ha),Foliar spray O (herbicidal effect rating) ([13]; Dosage 1 kg/ha),Foliar spray O (herbicidal effect rating) ([13]; Dosage 5 kg/ha),Foliar spray R (herbicidal effect rating) ([14]; Dosage 1 kg/ha),Foliar spray R (herbicidal effect rating) ([14]; Dosage 5 kg/ha),also measured
"COC(=O)c1cc2cc3c(cc2nc1C1=NC(C)(C(C)C)C(=O)N1C(C)=O)OCO3 (centres unmarked) [Example 3, Methyl-2-(1-acetyl-4-isopropyl-4-methyl-5-oxo-2-imidazolin-2-yl)-[1,3]-dioxolo[4,5-g] quinoline-3-carboxylate]",7,6,5,7,6,5,0,8,5,7,5,6,4,6,3,6,3,5,2,5,Foliar spray S (herbicidal effect rating) ([15]; Dosage 1 kg/ha): 1; Foliar spray S (herbicidal effect rating) ([15]; Dosage 5 kg/ha): 3; Foliar spray SB (herbicidal effect rating) ([16]; Dosage 1 kg/ha): 5; Foliar spray SB (herbicidal effect rating) ([16]; Dosage 5 kg/ha): 7; Pre-emergence BG (herbicidal effect rating) ([17]; Dosage 1 kg/ha): 4; Pre-emergence BG (herbicidal effect rating) ([17]; Dosage 5 kg/ha): 7; Pre-emergence L (herbicidal effect rating) ([18]; Dosage 1 kg/ha): 5; Pre-emergence L (herbicidal effect rating) ([18]; Dosage 5 kg/ha): 8; Pre-emergence Mz (herbicidal effect rating) ([19]; Dosage 1 kg/ha): 4; Pre-emergence Mz (herbicidal effect rating) ([19]; Dosage 5 kg/ha): 8; Pre-emergence M (herbicidal effect rating) ([20]; Dosage 1 kg/ha): 2; Pre-emergence M (herbicidal effect rating) ([20]; Dosage 5 kg/ha): 4; Pre-emergence O (herbicidal effect rating) ([21]; Dosage 1 kg/ha): 4; Pre-emergence O (herbicidal effect rating) ([21]; Dosage 5 kg/ha): 6; Pre-emergence R (herbicidal effect rating) ([22]; Dosage 1 kg/ha): 2; Pre-emergence R (herbicidal effect rating) ([22]; Dosage 5 kg/ha): 5; Pre-emergence S (herbicidal effect rating) ([23]; Dosage 1 kg/ha): 0; Pre-emergence S (herbicidal effect rating) ([23]; Dosage 5 kg/ha): 0; Pre-emergence SB (herbicidal effect rating) ([24]; Dosage 1 kg/ha): 4; Pre-emergence SB (herbicidal effect rating) ([24]; Dosage 5 kg/ha): 8
"CC(C)C1(C)NC(c2nc3cc4c(cc3cc2C(=O)O)OCO4)=NC1=O (centres unmarked) [Example 2, 2-(5-methyl-5-isopropyl-4-oxo-2-imidazolin-2-yl)-[1,3]-dioxolo[4,5-g] quinoline-3-carboxylic acid]",9,7,7,9,7,7,6,8,7,7,6,6,6,7,7,7,6,7,6,6,Foliar spray S (herbicidal effect rating) ([15]; Dosage 1 kg/ha): 2; Foliar spray S (herbicidal effect rating) ([15]; Dosage 5 kg/ha): 4; Foliar spray SB (herbicidal effect rating) ([16]; Dosage 1 kg/ha): 7; Foliar spray SB (herbicidal effect rating) ([16]; Dosage 5 kg/ha): 7; Pre-emergence BG (herbicidal effect rating) ([17]; Dosage 1 kg/ha): 8; Pre-emergence BG (herbicidal effect rating) ([17]; Dosage 5 kg/ha): 8; Pre-emergence L (herbicidal effect rating) ([18]; Dosage 1 kg/ha): 8; Pre-emergence L (herbicidal effect rating) ([18]; Dosage 5 kg/ha): 9; Pre-emergence Mz (herbicidal effect rating) ([19]; Dosage 1 kg/ha): 8; Pre-emergence Mz (herbicidal effect rating) ([19]; Dosage 5 kg/ha): 8; Pre-emergence M (herbicidal effect rating) ([20]; Dosage 1 kg/ha): 7; Pre-emergence M (herbicidal effect rating) ([20]; Dosage 5 kg/ha): 7; Pre-emergence O (herbicidal effect rating) ([21]; Dosage 1 kg/ha): 7; Pre-emergence O (herbicidal effect rating) ([21]; Dosage 5 kg/ha): 7; Pre-emergence R (herbicidal effect rating) ([22]; Dosage 1 kg/ha): 9; Pre-emergence R (herbicidal effect rating) ([22]; Dosage 5 kg/ha): 9; Pre-emergence S (herbicidal effect rating) ([23]; Dosage 1 kg/ha): 8; Pre-emergence S (herbicidal effect rating) ([23]; Dosage 5 kg/ha): 8; Pre-emergence SB (herbicidal effect rating) ([24]; Dosage 1 kg/ha): 8; Pre-emergence SB (herbicidal effect rating) ([24]; Dosage 5 kg/ha): 8
